Tests used:
Experiment in all cases: relative viability (nuclei count vs DMSO), 5 days (fraction); higher = more cells survive
[1] = compound: CC1=C(C(=O)N2C=CSC2=N1)CCN3CCC(=C(C4=CC=CC=C4)C5=CC=C(C=C5)F)CC3 + CS(=O)(=O)N1CCN(Cc2cc3nc(-c4cccc5[nH]ncc45)nc(N4CCOCC4)c3s2)CC1 [Pictilisib] (partner 1 µM)
Method in brief: (§1)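 Nuclei were stained with Hoechst during a one-step fixation (final 0.05% Triton X-100, 1% formaldehyde, 1 ug/ml Hoechst) carried out 5 days after dosing, then counted on 4× images. The cells, lung cancer lines in 1536-well plates, had been dosed by pin tool the day after seeding with one drug alone or a fixed anchor-drug dose plus five library-drug doses (not always all listed) in √10 steps. Relative viability is the nuclei count in treated wells divided by that in vehicle wells, and each value is the median of duplicate plates.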

[2] = compound: CC1=C(C(=O)N2C=CSC2=N1)CCN3CCC(=C(C4=CC=CC=C4)C5=CC=C(C=C5)F)CC3 + COc1cc2c(Oc3ccc(NC(=O)C4(C(=O)Nc5ccc(F)cc5)CC4)cc3F)ccnc2cc1OCCCN1CCOCC1 [Foretinib] (partner 0.25 µM)
Method in brief: as §1

[3] = compound: CC1=C(C(=O)N2C=CSC2=N1)CCN3CCC(=C(C4=CC=CC=C4)C5=CC=C(C=C5)F)CC3 + CC(=O)c1c(C)c2cnc(Nc3ccc(N4CCNCC4)cn3)nc2n(C2CCCC2)c1=O [Palbociclib] (partner 0.5 µM)
Method in brief: as §1

[4] = compound: CC1=C(C(=O)N2C=CSC2=N1)CCN3CCC(=C(C4=CC=CC=C4)C5=CC=C(C=C5)F)CC3 + CC(C)C[C@H](NC(=O)[C@H](Cc1ccccc1)NC(=O)c1cnccn1)B(O)O [Bortezomib] (partner 0.002 µM)
Method in brief: as §1

| Cell Line | relative viability ([1]; first compound 0.08 µM) | relative viability ([1]; first compound 0.253 µM) | relative viability ([1]; first compound 0.8 µM) | relative viability ([1]; first compound 2.53 µM) | relative viability ([1]; first compound 8 µM) | relative viability ([2]; first compound 0.08 µM) | relative viability ([2]; first compound 0.253 µM) | relative viability ([2]; first compound 0.8 µM) | relative viability ([2]; first compound 2.53 µM) | relative viability ([2]; first compound 8 µM) | relative viability ([3]; first compound 0.08 µM) | relative viability ([3]; first compound 0.8 µM) | relative viability ([3]; first compound 2.53 µM) | relative viability ([3]; first compound 8 µM) | relative viability ([4]; first compound 0.08 µM) | relative viability ([4]; first compound 0.253 µM) | relative viability ([4]; first compound 0.8 µM) | relative viability ([4]; first compound 2.53 µM) | relative viability ([4]; first compound 8 µM) | relative viability ([3]; first compound 0.253 µM) |
| --- | --- | --- | --- | --- | --- | --- | --- | --- | --- | --- | --- | --- | --- | --- | --- | --- | --- | --- | --- | --- |
| NCI-H2405 | 0.426 | 0.432 | 0.481 | 0.531 | 0.347 | 1.08 | 1.03 | 1.09 | 1.04 | 0.969 | 0.609 | 0.547 | 0.576 | 0.476 | 0.872 | 0.969 | 0.999 | 0.732 | 0.814 | – |
| NCI-H3122 | 0.72 | 0.678 | 0.574 | 0.768 | 0.623 | 1.01 | 1.1 | 0.931 | 0.991 | 0.91 | 0.178 | 0.192 | 0.164 | 0.157 | 1.04 | 1.04 | 0.993 | 1.14 | 1.16 | 0.213 |
| PC-3 [JPC-3] | 0.78 | 0.746 | 0.72 | 0.765 | 0.711 | 1.01 | 0.885 | 1.05 | 1.17 | 0.93 | 0.58 | 0.576 | 0.596 | 0.579 | 0.811 | 0.895 | 0.969 | 1.01 | 0.642 | – |
| PC-14 | 0.604 | 0.617 | 0.708 | 0.93 | 0.399 | 0.783 | 0.999 | 1 | 0.828 | 0.783 | 0.358 | 0.455 | 0.622 | 0.328 | 0.9 | 0.759 | 1.01 | 1.09 | 0.592 | 0.574 |
| RERF-LC-KJ | 0.627 | 0.495 | 0.511 | 0.497 | 0.487 | 0.794 | 0.92 | 0.917 | 0.846 | 0.561 | 1.18 | 0.97 | 0.991 | 0.637 | 1.02 | 1.02 | 1.16 | 1.18 | 1 | 1.04 |
| SK-LU-1 | 0.538 | 0.587 | 0.655 | 0.573 | 0.494 | 0.909 | 0.597 | 1.01 | 1.12 | 0.581 | 0.378 | 0.406 | 0.416 | 0.36 | 1.08 | 0.965 | 1.05 | 1.19 | 1.01 | 0.375 |
| SW 1573 | – | 0.478 | 0.478 | 0.486 | 0.264 | 1.07 | 0.829 | 0.814 | 0.947 | 0.72 | 0.346 | 0.407 | 0.382 | 0.286 | 1.26 | 1.16 | 1.05 | 1.06 | 0.649 | 0.359 |
| UMC-11 | 0.953 | 0.811 | 0.8 | 1.15 | 0.733 | 0.948 | 1.07 | 1.08 | 1.18 | 0.692 | 0.309 | 0.272 | 0.321 | 0.328 | 0.793 | 0.609 | 0.731 | 0.861 | 0.595 | 0.321 |
